In PMC6176332, “Studies on the Interaction between Three Small Flavonoid Molecules and Bovine Lactoferrin” (BioMed Research International, 2018):

Target: T1, bovine lactoferrin (BLF) (Bos taurus, UniProt P24627)
T1 construct: gene LTF
Assay: intrinsic fluorescence quenching (excitation […] nm), double-log plot
Assay type: binding
Conditions: 0.05 M phosphate buffer, pH 7.4, 300 K, about 1% ethanol; n = 1.076; in 1/M

T1 sequence (P24627 20-708): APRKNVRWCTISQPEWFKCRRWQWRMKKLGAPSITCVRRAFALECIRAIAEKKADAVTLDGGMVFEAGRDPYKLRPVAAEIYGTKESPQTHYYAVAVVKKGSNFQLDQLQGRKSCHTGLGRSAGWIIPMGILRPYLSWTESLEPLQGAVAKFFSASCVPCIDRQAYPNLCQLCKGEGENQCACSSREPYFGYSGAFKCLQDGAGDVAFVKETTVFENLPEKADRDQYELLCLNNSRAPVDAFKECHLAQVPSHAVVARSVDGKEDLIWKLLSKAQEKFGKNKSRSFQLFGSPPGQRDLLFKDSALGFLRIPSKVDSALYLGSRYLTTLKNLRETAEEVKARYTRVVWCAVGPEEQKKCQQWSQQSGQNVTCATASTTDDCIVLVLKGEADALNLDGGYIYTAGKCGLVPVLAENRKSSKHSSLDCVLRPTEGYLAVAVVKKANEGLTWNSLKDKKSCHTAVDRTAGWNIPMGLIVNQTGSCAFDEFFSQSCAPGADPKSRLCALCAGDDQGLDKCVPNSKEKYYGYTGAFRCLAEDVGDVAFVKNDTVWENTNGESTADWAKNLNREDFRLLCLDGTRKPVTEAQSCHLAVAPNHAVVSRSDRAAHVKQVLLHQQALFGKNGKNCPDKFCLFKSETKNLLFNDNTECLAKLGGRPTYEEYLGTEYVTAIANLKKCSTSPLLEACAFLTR

In the case of `O=C1C[C@@H](c2ccc(O)cc2)Oc2cc(O)cc(O)c21` [Naringenin], the “Ka (×10^4M^-1)” value was 3.05 ×10^4.
